Assay results as given in ChEMBL document CHEMBL6109062, “Novel tertiary diarylethylamines as functionally selective agonists of the kappa opioid receptor” (Bioorg Med Chem Lett, 2025).

Legend:
[1] = in vitro; details: human, liver microsomes
[2] = in vitro; details: rat, liver microsomes
[3] = in vitro; details: rat, liver microsomes; remark: listed apart in the source
[4] = in vitro; details: dog, MDCK-MDR1
[5] = in vivo; details: rat, po, 10 mg/kg
[6] = in vivo; details: rat, po, 10 mg/kg; remark: listed apart in the source
[7] = in vitro; details: human, hepatocytes
[8] = Clearance in rat; assay type: ADME; details: in vivo
[9] = in vivo; details: rat, po

| clearance [8] | bioavailability [9] | SMILES | remaining at 0.25 h [1] | remaining at 0.25 h [2] | remaining at 0.5 h [3] | Papp A→B [4] | half-life [5] | bioavailability [6] | hepatocyte CLint [7] |
| --- | --- | --- | --- | --- | --- | --- | --- | --- | --- |
|  |  | O=c1[nH]c2ccc(CCN(CCc3ccccc3)CC3CCC3)cc2[nH]1 | 66% | < 5% |  |  |  |  |  |
|  |  | Oc1cccc(CCN(CCc2ccccc2)CC2CCC2)c1 | < 5% |  |  |  |  |  |  |
|  |  | c1ccc(CCN(CCc2ccc3nc[nH]c3c2)CC2CC2)cc1 | 77% | < 5% | 3% | 5.5 ×10⁻⁶ cm/s | 1.2 h | 2.7% | 16.7 µL/min/1e6 cells |
| 45 mL/min/kg | < 1% | Oc1cccc(CCN(CC2CCC2)C2CN(Cc3ccccc3)C2)c1 | < 5% |  |  |  |  |  |  |
|  |  | CC(Cc1ccc2nc[nH]c2c1)N(CCc1ccccc1)CC1CC1 (stereo unspecified) | 70% | 10% |  |  |  |  | 22.1 µL/min/1e6 cells |
